Laboratory results taken from patent EP0350948B1, “Porphyrin derivatives” (TOYOHAKKA KOGYO KABUSHIKI KAISHA, priority 1988, dated 1990).

Experiments:
[1] = tested on: nitrosoamine-induced pancreatic cancer; experiment: in vivo hemorrhagic necrosis effect; parameters: species or system hamsters; key to Hemorrhagic necrosis effect: four scales of G4, G3, G2 and G1; four scales of G4, G3, G2 and G1; four scales of G4, G3, G2 and G1; four scales of G4, G3, G2 and G1; details: for Hemorrhagic necrosis effect: intensity of hemorrhagic necrosis at 24 hours following i.v. administration, and pathological study
Description: Cancer bearing hamsters of Experiment 1 were i.v. administered the test substance C6-Ga-DP-diAsp (10) (10 mg/ml) which had been diluted with phosphate buffer at 25 mg/kg bodyweight and 12.5 mg/kg bodyweight respectively. The animals were exsanguinated and autopsied at 24 hours after administration, and observed.
The evaluation was based on the four scales of G4, G3, G2 and G1.

[2] = tested on: nitrosoamine-induced pancreatic cancer; experiment: pathology of tumor and organs (hematoxylin-eosin sections); assay type: in vivo, hamsters; details: treated as in Experiment 2, formalin fixed
Description: Tumor bearing hamsters of Experiment 1 were treated similarly as in Experiment 2 except that they were administered C12-Mn-DP-diAsp (48) instead of C6-Ga-DP-diAsp (10). Organs including the tumor (the treated group and the control group) were fixed with formalin, embedded in paraffin, cut into sections, double stained with hematoxylin-eosin, and observed pathologically.
Figs. 4 and 5 show photographs of the tumor cell necrosis of the treated group. There were many cell necrosis images and necrotic layers which were not present in the non-cancerous organs and the control group.

[3] = tested on: nitrosoamine-induced pancreatic cancer; experiment: in vivo cell growth inhibition effect (tumor size by slide calipers); parameters: species or system hamsters; details: i.v. 25 mg/kg bodyweight
Description: Tumor bearing hamsters of Experiment 1 were i.v. administered the test substance C10-Mn-DP-diAsp (37) (10 mg/ml) diluted by phosphate buffer at 25 mg/kg bodyweight. The tumor size was measured supracutaneously using slide calipers on an appropriate day following administration.

[4] = tested on: nitrosoamine-induced pancreatic cancer; experiment: in vivo irradiation therapy using Yag laser; parameters: species or system hamsters; details: i.v. 12.5 mg/kg bodyweight, Yag laser 1064 nm, 5 w, 10 sec x 4 at 24 hours after administration, autopsy 24 hours following irradiation
Description: Tumor bearing hamsters of Experiment 1 were i.v. administered the test materials C6-Ga-DP-diAsp (10) and C10 -Ga-DP-diAsp (16) (10 mg/ml) at 12.5 mg/kg bodyweight. At 24 hours after administration, the hair above the tumor site was shaved and irradiation with Yag laser commenced (1064 nm, 5 w, 10 sec x 4). At 24 hours following irradiation, the animals were exsanguinated and autopsied for observation.

[5] = tested on: nitrosoamine-induced pancreatic cancer; experiment: laser irradiation to the extirpated organ (excited fluorescent spectrum, N2-PLS measurement), tumor to tissue ratio; assay type: in vivo, Golden hamsters; details: i.v. 25 mg/kg bodyweight, organs extirpated at 24 hours after administration
Outline: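 Male golden hamsters (~150 g, 5/group) bearing subcutaneous tumours, given EG-Ga-DP-diGly 25 mg/kg i.v. 14–21 days post-implant. Organs excised at 24 h, excited by N2-pulsed laser (337 nm); 600–900 nm peak referenced to NADH 470 nm. For Mn, Fe, Cu complexes, organic-solvent extracts measured by UV or HPLC.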

## CCCCCCCCCCCCOC(C)C1=C(C)C2=Cc3c(C(C)OCCCCCCCCCCCC)c(C)c4[n]3[Mn][n]3c(c(C)c(CCC(=O)NC(CC(=O)O)C(=O)O)c3=CC3=NC(=C4)C(C)=C3CCC(=O)NC(CC(=O)O)C(=O)O)=CC1=N2 (stereo not shown) [(48) C12-Mn-DP-diAsp, 2,4-bis(1-dodecyloxyethyl)-Mn-deuteroporphynyl diaspartic acid]
[1]
  Hemorrhagic necrosis effect: G4
[2]
  pathological observation of the tumor (Fig. 4): necrotic tumor cells
[3]
  tumor growth compared to the control group (Fig. 6): notable tumor growth inhibitory effect

## CCCCCCCCCCOC(C)C1=C(C)c2cc3[nH]c(cc4nc(cc5[nH]c(cc1n2)c(C)c5C(C)OCCCCCCCCCC)C(C)=C4CCC(=O)NC(CC(=O)O)C(=O)O)c(CCC(=O)NC(CC(=O)O)C(=O)O)c3C.[Ga] (stereo not shown) [(16) C10-Ga-DP-diAsp, 2,4-bis(1-decyloxyethyl)-Ga-deuteroporphynyl diaspartic acid]
[4]
  state of the cancer mass after Yag laser irradiation: necrotic
[5]
  tumor/tissue cancer/ kidney: 16.44
  tumor/tissue cancer/ liver: 11.54
  tumor/tissue cancer/ lung: 23.08
  tumor/tissue cancer/ serum: 2.78
[1]; 24 hours after administration, Cn-Ga-DP-diAsp, n = even numbers
  photograph of a cancer mass (Fig. 2): hemorrhagic necrosis
[1]
  Hemorrhagic necrosis effect: G2
